Patent publication US20220017486A1, “DOCK1-INHIBITING COMPOUND AND USE THEREOF” (KYUSHU UNIVERSITY, NATIONAL UNIVERSITY CORPORATION, priority 2018, published 2022)

Columns and labels:
[1] = target: T1, DOCK1 (DHR-2 domain) (Homo sapiens, UniProt Q14185); assay: In vitro GEF assay: Rac activation by DOCK1 DHR-2 domain; format: biochemical, mice and humans; conditions: in words
T1 construct: polypeptide fragments corresponding to the DHR-2 domain of DOCK1 or DOCK2 from mice and humans; Histidine-SUMO (N); made in house; host or cells: E. coli Arctic express (DE3)
T1 sequence (Q14185 1207-1617 limits assumed): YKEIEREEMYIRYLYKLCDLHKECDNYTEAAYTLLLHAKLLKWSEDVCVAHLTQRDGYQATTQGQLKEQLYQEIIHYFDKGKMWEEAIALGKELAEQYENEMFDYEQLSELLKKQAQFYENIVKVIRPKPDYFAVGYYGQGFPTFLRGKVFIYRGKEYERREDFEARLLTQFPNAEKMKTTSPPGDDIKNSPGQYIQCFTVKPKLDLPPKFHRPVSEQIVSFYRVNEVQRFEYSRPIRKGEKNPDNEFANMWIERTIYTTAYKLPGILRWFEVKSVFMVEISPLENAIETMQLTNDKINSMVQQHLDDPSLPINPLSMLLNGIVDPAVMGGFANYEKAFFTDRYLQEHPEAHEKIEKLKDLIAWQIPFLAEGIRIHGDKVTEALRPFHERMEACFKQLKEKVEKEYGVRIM
How it was run: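 Human/mouse His-SUMO DHR-2 fragment preincubated 20 min at RT with compound (1% DMSO) in MES buffer pH 7.0 with 20 μM GDP, then added to GDP-loaded GST-Rac (15 μM) plus 3.6 μM Bodipy-FL-GTP at 30° C. Initial velocity (0–10 s fluorescence slope, ex 488/em 514 nm) vs DMSO control gave IC50.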

[2] = tested on: T cells (mouse spleen cells); assay: Viability of lymphocytes (propidium iodide, flow cytometry); format: cell-based; conditions: in words, 1-hour culture
Method: Specifically, 1×10^6 mouse spleen cells were suspended in 100 μL of RPMI-1640 medium containing 0.5% BSA, and DMSO in which a predetermined concentration of each test compound was dissolved or DMSO alone was added thereto to a final DMSO concentration of 0.2%. After 1-hour culture at 37° C., 2 μL of a propidium iodide staining solution (BD Pharmingen) was added and incubated on ice for 30 minutes, followed by flow cytometry analysis. The percentage of the viable cells under each condition was calculated, considering negative cells to be viable cells.

DOCK1-inhibiting activity compared with TBOPP ([1]; GEF assay): higher than those of TBOPP
selective inhibitory activity against DOCK1 compared to TBOPP ([1]; GEF assay): higher than those of TBOPP
Structure (SMILES): COC(=O)c1cc(S(=O)(=O)N2CCCC2)cn1CC(=O)c1ccc(-c2cccc(C(F)(F)F)c2)cc1 [RT-22, methyl 1-(2-oxo-2-(3′-(trifluoromethyl)-[1,1′-biphenyl]-4-yl)ethyl)-4-(pyrrolidin-1-yl-sulfonyl)-1H-pyrrole-2-carboxylate]
selective inhibitory activity against DOCK1 versus DOCK2 ([1]; GEF assay DOCK1 vs DOCK2 DHR-2 domain): higher selective inhibitory activity against DOCK1 than against DOCK2
viability of T cells [2]: no effect
